According to PubChem BioAssay (NCI):
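In this assay, cells in 96-well plates receive the compound at five concentrations for 48 hours. Endpoints are linearly interpolated between the surrounding concentrations. Here, GI50 denotes the concentration required for 50% inhibition of growth. TGI denotes the concentration required for complete inhibition of growth.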

Assays:
Assay in all cases: NCI-60 cell line screen, 48 h
HCC-2998 colon = tested on: HCC-2998 colon
MOLT-4 leukemia = tested on: MOLT-4 leukemia
SK-MEL-2 melanoma = tested on: SK-MEL-2 melanoma
COLO 205 colon = tested on: COLO 205 colon
CAKI-1 renal = tested on: CAKI-1 renal
A498 renal = tested on: A498 renal
OVCAR-5 ovarian = tested on: OVCAR-5 ovarian
IGROV1 ovarian = tested on: IGROV1 ovarian
TK-10 renal = tested on: TK-10 renal
OVCAR-4 ovarian = tested on: OVCAR-4 ovarian

SMILES	GI50 (HCC-2998 colon) [µM]	TGI (HCC-2998 colon) [µM]	GI50 (MOLT-4 leukemia) [µM]	TGI (MOLT-4 leukemia) [µM]	GI50 (SK-MEL-2 melanoma) [µM]	TGI (SK-MEL-2 melanoma) [µM]	GI50 (COLO 205 colon) [µM]	TGI (COLO 205 colon) [µM]	GI50 (CAKI-1 renal) [µM]	TGI (CAKI-1 renal) [µM]	GI50 (A498 renal) [µM]	TGI (A498 renal) [µM]	GI50 (OVCAR-5 ovarian) [µM]	TGI (OVCAR-5 ovarian) [µM]	GI50 (IGROV1 ovarian) [µM]	TGI (IGROV1 ovarian) [µM]	GI50 (TK-10 renal) [µM]	TGI (TK-10 renal) [µM]	GI50 (OVCAR-4 ovarian) [µM]	TGI (OVCAR-4 ovarian) [µM]
COc1ccc(-c2nn(-c3cccc(Cl)c3)cc2-c2cc(-c3ccccc3)nc(N)n2)cc1	2.25	4.53	2.03	5.61	3.23	10.7	2.09	3.81	1.77	10.7	2.21	11.9	2.94	11	4.2	16.5	11.8	24.1	2.42	9.64
Cc1ccc(Sc2ccc(C)cc2[N+](=O)[O-])c([N+](=O)[O-])c1		> 100		> 100		> 100		> 100		> 10		> 100		> 100		> 100		> 100		> 100
C=C1CCC2C3(C)COC(c4ccccc4Br)OC3CCC2(C)C1C/C=C1/C(=O)OCC1OC(C)=O (stereo not drawn)	1.73	3.31	0.821	2.91	1.72	3.4	1.66	3.2	2.4	6.46	1.6	3.91	1.85	3.28	1.15	2.48	1.91	3.67	1.43	2.83
COc1cc(C)c(O)c(C(=O)O)c1		> 100		> 100		> 100		> 100		> 100		> 100		> 100		> 100		> 100		> 100
COc1cc2c3c(n(C)c(=O)c2cc1OC)-c1cc2c(cc1/C3=C\C(N)CN)OCO2 (stereo not drawn)	3.22	50	0.125	> 40.7	4.71	> 22.8	2.08	12.1	2.27	10.4	1.37	9.77	4.43	> 30.9	0.791		1.45	26.5	5.44	> 100
COc1cc(C2C3=C(COC3=O)Nc3cc4c(cc32)CCC4)cc2c1OCO2 (stereo not drawn)	0.26	4.88	0.0496	15.6	0.0989	3.47	0.0407	0.139	0.157	38.7	0.025	0.0964	0.231	41.7	0.0617	17.1	10.1	32.4	0.0717	19.8
Nc1n[nH]c2cccc(C#Cc3cccc(C(=O)Nc4cc(CN5CCOCC5)cc(C(F)(F)F)c4)c3)c12	3.3	12.2	2.76	13.3	2.62	10.6	2.7	11.1	5.11	19.4	1.75	9.53	3.37	25.7	3.23	11.7	11.4	27.5	5.8	23.1
CCCCNC(=O)NS(=O)(=O)c1ccc(N2N=C(c3cc(C)ccc3C)CC2c2cc(OC)c(OC)c(OC)c2)cc1 (stereo not drawn)	2.32	4.84	2.74	8.89	2.2	4.84	2.6	5.19	3.07	12.7	2.31	6.01	3.39	11.9	3.19	9.96	3.44	10.7	2.52	14.5
N.N.NCCCCCCN.O=C([O-])CC(=O)[O-].O=C([O-])CC(=O)[O-].[Pt+4].[Pt+4]	> 100	> 100	5.2	> 100	> 100	> 100	27.7	> 100	26.6	> 100	> 100	> 100	> 100	> 100	> 100	> 100	> 100	> 100	> 78.5	> 100
c1ccc(CSc2nnc3c4ccccc4c4ccccc4c3n2)cc1		> 100		> 100		> 79.7		> 100		> 100		> 100		> 100		> 46.6		84.5		> 96.3
CCN1C(=O)N(CC)C2C1NN=c1s/c(=C\c3cc4ccccc4[nH]3)c(=O)n12 (stereo not drawn)	0.0382	> 100	< 0.018	> 100		33.9	0.0201	0.0448	< 0.0169	11.6	0.0108	0.0628	< 0.0128	> 100	0.0139	12.2	2.11	32.3	< 0.0162	> 100
CCCc1cc(=O)n2c(C(=O)Nc3ccccc3OC)c(C(=O)Nc3ccc(F)cc3)sc2n1	131	> 160	19.8	57.3	7.53	29.6	38.2	> 160	35.3	> 160	34.3	97.1	69.3	> 160	21.5	46.2	26	64.3	5.03	15.3
O=C(CCCSc1nc(-c2ccccc2)cc(-c2ccc(Cl)cc2)n1)NO	3.03	13.2	1.51	10.6	4.39	18.5	2.9	12.1	0.355	9.36	1.7	4.7	2.12	8.48	2.08	11.7	0.773	12.3	1.12	14.4
